From US10435385B2, “Amide derivatives, process for preparation thereof and use thereof as insecticide” (MITSUI CHEMICALS, INC., priority 2004, dated 2019)

How the values were obtained:
[1] = tested on: common cutworm (Spodoptera litura); experiment: Insecticidal testing against common cutworm (cabbage leaf dip, second-stage larvae); format: in vivo; details: comparative test, procedure and conditions of Experimental Example 1
Procedure: (§1) Insecticidal Testing Against Common Cutworm (Spodoptera litura) Cabbage leaves were immersed in a liquid comprising the testing compound to a predetermined concentration for 30 seconds and air-dried. They were placed in a 7-cm polyethylene cup, and the second-stage larvae of common cutworm were left therein. The cup was placed in a constant-temperature room at 25° C., and the survival rate was investigated after 3 days. The test was carried out with two groups of 5 larvae per group. As a result, Compound No. (to be described later)

[2] = tested on: diamondback moth (Plutella xylostella); experiment: Insecticidal testing against diamondback moth (cabbage leaf dip, second-stage larvae); format: in vivo; details: comparative test, procedure and conditions of Experimental Example 2
Procedure: as §1, with “Diamondback Moth (Plutella xylostella)” for “Common Cutworm (Spodoptera litura)”, “diamondback moth” for “common cutworm”

| SMILES | insecticidal activity [1] | insecticidal activity [2] |
| --- | --- | --- |
| Cc1cc(C(F)(C(F)(F)F)C(F)(F)F)ccc1NC(=O)c1cccc(NC(=O)c2ccccc2I)c1 [Compound A, N-(4-heptafluoroisopropyl-2-methyl)phenyl 3-(2-iodobenzoylamino)benzamide] | not observed | not observed |
| Cc1cc(C(F)(F)F)cc(C)c1NC(=O)c1cccc(NC(=O)c2ccccc2)c1 [Compound B, N-(2,6-dimethyl-4-trifluoromethyl)phenyl 3-(benzoylamino)benzamide] | not observed | not observed |
